In US20070148154A1, “Use of superoxide dismutase mimetics and reductase gultatione in the form of anticancer drugs” (UNIVERSITE RENE DESCARTES (PARIS V), priority 2004, published 2007):

Experiments:
[1] = system: Hepa 1-6 (mouse liver hepatoma); assay: In vitro cell proliferation assay ([3H]-thymidine); assay type: cell-based; conditions: for decrease in tumor cell proliferation, antitumor agent alone: no antioxidant
Method: (§4) In vitro cell proliferation assays were carried out on the following cell lines: CT26 (mouse colon carcinoma, ATCC (American Type Culture Collection) No. 2638), Hepa 1-6 (mouse liver hepatoma, ATCC No. 1830), A549 (human lung carcinoma, ATCC No. 185).
(§5) The cell proliferation is determined by incubating the cells for 16 hours with [^3H]-thymidine (1 μCi/well).

[2] = system: CT26 (mouse colon carcinoma); assay: In vitro cell proliferation assay ([3H]-thymidine); assay type: cell-based; conditions: for decrease in tumor cell proliferation, antitumor agent alone: no antioxidant
Method: as §4, §5

[3] = system: A549 (human lung carcinoma); assay: In vitro cell proliferation assay ([3H]-thymidine); assay type: cell-based; conditions: for decrease in tumor cell proliferation, antitumor agent alone: no antioxidant
Method: as §4, §5

[4] = system: Hepa 1-6 tumor cells; assay: In vitro viability test (MTT); assay type: cell-based, mouse; conditions: for viability reduced by: 400 μM, 48 h
Method: (§6) In vitro viability tests, in response to the treatment with NAC, CuDIPS, MnTBAP or MnDPDP, were carried out on the cell lines of Example 1 and on normal human leukocytes. The latter were obtained from normal volunteers, after informed consent, by taking venous blood samples collected on an anticoagulant (lithium-heparinate). The red blood cells were lysed by osmotic shock using a hypotonic solution of potassium acetate and the leukocytes were cultured under the conditions described in Example 1.
(§7) For the viability test, the cells (2×10^4 cells/well) were seeded into 96-well plates (COSTAR, Corning Inc. NY, USA) and incubated for 48 hours in complete medium supplemented with increasing concentrations, from 0 to 400 μm, of NAC, of MnTBAP, of CuDIPS or of MnDPDP. The cell viability was evaluated by reduction of a methylthiazoletetrazolium salt (MTT; SIGMA) into formazan. The cells were exposed to 20 μl of MTT (5 mg/ml in PBS) and incubated for 4 h at 37° C. 150 μl of medium were then removed from each well and the reaction was visualized by the addition of 100 μl of DMSO (SIGMA). The absorbance was analyzed for each well at 550 nm and at 630 nm with an ELISA plate reader. The number of viable cells was determined by the difference between the absorbance at 550 nm and the absorbance at 630 nm.
(§8) The viability tests were carried out on the CT26, Hepa 16 and A549 tumor lines, and on normal human leukocytes, according to the protocol described in Example 2.

[5] = system: CT26 tumor cells; assay: In vitro viability test (MTT); assay type: cell-based, mouse; conditions: for viability reduced by: 400 μM, 48 h
Method: as §6, §7, §8

[6] = system: A549 tumor cells; assay: In vitro viability test (MTT); assay type: cell-based, human; conditions: for viability reduced by: 400 μM, 48 h
Method: as §6, §7, §8

[7] = system: normal human leukocytes; assay: In vitro viability test (MTT); conditions: for decrease in viability of normal leukocytes, antitumor agent alone: no antioxidant; for decrease in cell viability, maximum / effect on viability of normal human leukocytes: 0 to 400 μM, 48 h; for effect on the cytotoxic effect of taxol on normal leukocytes: with 20 μM taxol; for effect on the cytotoxic effect of taxol on normal leukocytes / effect on the cytotoxic effect of oxaliplatin on normal leukocytes / effect on the cytotoxic effect of 5-FU on normal leukocytes: increasing concentrations of antioxidant; for effect on the cytotoxic effect of oxaliplatin on normal leukocytes: with 1 mM oxaliplatin; for effect on the cytotoxic effect of 5-FU on normal leukocytes: with 40 mM 5-FU
Method: as §6, §7, §8

[8] = system: CT26 carcinoma tumor cells in BALB/c mice; assay: In vivo antitumor activity, subcutaneous CT26 tumors; design: species or system mouse; conditions: for decrease in tumor volume at one month compared with the nontreated animals / decrease in tumor volume at one month compared with animals treated only with oxaliplatin: 10 mg/kg i.p.; for decrease in tumor volume at one month compared with the nontreated animals: no oxaliplatin; for decrease in tumor volume at one month compared with animals treated only with oxaliplatin: plus oxaliplatin 20 mg/kg
Method: (§1) The in vivo antitumor activity of various antioxidant treatments was estimated. For these experiments, female six- to eight-week-old BALB/c (for the injection of CT-26 tumor cells) or C57/BL6 (for the injection of Hepa 1-6 tumor cells) mice were used (IFFA CREDO, L'Arbresles, France). Two million tumor cells were injected into the back of the animals subcutaneously. When the size of the tumor reached 200 to 500 mm^3, the animals were given a single injection of 20 mg/kg of oxaliplatin (ELOXATIN®) or of a saline solution.
(§2) The mice were then treated intraperitoneally, two hours after the injection of oxaliplatin or of saline solution, with 10 mg/kg of mangafodipir, of MnTBAP or of CuDIPS, or with 150 mg/kg of NAC, or with a saline solution. The injection of the various antioxidants was continued for one month (three injections per week at the same doses). A group of mice inoculated with tumor cells was not treated.
(§3) The size of the tumors was measured every three days. The tumor volume was calculated as follows: VT (mm^3)=(L×W^2)/2, where L is the longest dimension and W the shortest dimension of the tumor in mm. Fifteen mice were included in each group.

[9] = system: Hepa 1-6 cells in C57BL/6 mice; assay: In vivo antitumor activity, subcutaneous Hepa 1-6 tumors; design: species or system mouse; conditions: for decrease in tumor volume at one month compared with the nontreated animals: no oxaliplatin; for effect on the inhibitory (antitumor) effect of oxaliplatin on tumor growth: mice treated with oxaliplatin 20 mg/kg, NAC 150 mg/kg, SOD mimetics 10 mg/kg i.p.
Method: as §1, §2, §3

[10] = system: Hepa 1-6, CT26 and A549 tumor cells; assay: In vitro viability test (MTT), result stated for the tumor lines together; conditions: for effect on the cytotoxic effect of oxaliplatin on tumor cells: with 10 μM oxaliplatin; for effect on the cytotoxic effect of oxaliplatin on tumor cells / effect on the cytotoxic activity of taxol on tumor cells / effect on the cytotoxic activity of 5-FU on tumor cells: increasing concentrations of antioxidant; for effect on the cytotoxic activity of taxol on tumor cells: with 10 μM taxol; for effect on the cytotoxic activity of 5-FU on tumor cells: with 50 μM 5-FU; for effect on tumor cell viability: 0 to 400 μM, 48 h
Method: In vitro viability tests, in response to the treatment with NAC, CuDIPS, MnTBAP or MnDPDP, were carried out on the cell lines of Example 1 and on normal human leukocytes.
as §7
For each of these molecules, cell proliferation assays and cell viability tests were carried out, in the absence of antioxidant molecules, or in the presence of increasing concentrations of NAC, of MnTBAP, of CuDIPS or of MnDPDP.
as §8

[11] = system: Hepa 1-6, CT26 and A549 tumor cells; assay: In vitro cell proliferation assay ([3H]-thymidine), result stated for the tumor lines together; conditions: for reduction in cell proliferation: 400 μM, 48 h incubation; for effect on the cytostatic (antiproliferative) effect of oxaliplatin: with 10 μM oxaliplatin; for effect on the cytostatic (antiproliferative) effect of oxaliplatin / effect on the cytostatic effect of taxol / effect on the cytostatic effect of 5-FU: increasing concentrations of antioxidant; for effect on the cytostatic effect of taxol: with 10 μM taxol; for effect on the cytostatic effect of 5-FU: with 50 μM 5-FU
Method: as §4, §5
The following antitumor molecules: oxaliplatin (belonging to the cisplatin family); taxol; 5-fluorouracil; which are known to induce ROS production in tumor cells, were used. For each of these molecules, cell proliferation assays and cell viability tests were carried out, in the absence of antioxidant molecules, or in the presence of increasing concentrations of NAC, of MnTBAP, of CuDIPS or of MnDPDP.

[12] = system: plasmid pcDNA3.1; assay: Plasmid DNA alteration (agarose gel electrophoresis, densitometry); conditions: for effect on the structure of plasmid DNA (form I / II / III): 37° C., 24 h, SOD mimetics 5 μM, oxaliplatin maximum at DNA/oxaliplatin ratio 0.5
Method: The purified plasmid pcDNA3.1 (INVITROGEN) was used to analyze the potential DNA alterations in response to the addition of molecules used in cancer chemotherapy in the presence, or in the absence, of antioxidant enzyme modulators. This DNA was then stored at −20° C. in 10 mM TRIS, 1 mM EDTA until its use.
The plasmid DNA was incubated with oxaliplatin at a molar ratio of 0.50 in a final volume of 50 μl. MnTBAP (5 μM), CuDIPS (5 μM), mangafodipir (5 μM) or NAC (5 mM) were then added to the solution. The production of superoxide anion was realized by the addition of 200 μM xanthine (SIGMA) and 1 U of xanthine oxidase (SIGMA). The incubation was carried out in the dark at 37° C. for 24 h. At the end of the incubation period, 10 μl aliquots were subjected to 0.8% agarose gel electrophoresis and detected by ethidium bromide staining. The gels were then analyzed by densitometry (VILBER LOURMAT, Marnes-la-Vallée, France).

[13] = 10 mg/kg i.p., three injections per week

Row | Molecule | decrease in tumor volume at one month compared with the nontreated animals ([8]; three injections per week) [%] | decrease in tumor volume at one month compared with animals treated only with oxaliplatin ([8]; three injections per week) [%] | decrease in tumor volume at one month compared with the nontreated animals [9, 13] [%] | effect on the inhibitory (antitumor) effect of oxaliplatin on tumor growth [9] | effect on the cytotoxic effect of taxol on normal leukocytes [7] | effect on the cytotoxic effect of oxaliplatin on normal leukocytes [7] | effect on the cytotoxic effect of 5-FU on normal leukocytes [7] | effect on the cytotoxic effect of oxaliplatin on tumor cells [10] | effect on the cytotoxic activity of taxol on tumor cells [10] | effect on the cytotoxic activity of 5-FU on tumor cells [10] | reduction in cell proliferation [11] [%] | effect on the cytostatic (antiproliferative) effect of oxaliplatin [11] | effect on the cytostatic effect of taxol [11] | effect on the cytostatic effect of 5-FU [11] | further results
1 | O=c1[nH]cc(F)c(=O)[nH]1 [5-FU, 5-fluoro-1,2,3,4-tetrahydropyrimidine-2,5-dione] |  |  |  |  |  |  |  |  |  |  |  |  |  |  | decrease in tumor cell proliferation, antitumor agent alone ([1]; 50 μM): 91%; decrease in tumor cell proliferation, antitumor agent alone ([2]; 50 μM): 91%; decrease in tumor cell proliferation, antitumor agent alone ([3]; 50 μM): 85%; cytotoxicity at 50 µM ([4]; Mus musculus, Hepa1-6, 50 μM, no antioxidant, read-out: decrease in cell viability, antitumor agent alone, on average): 65%; cytotoxicity at 50 µM ([5]; Mus musculus, CT26, 50 μM, no antioxidant, read-out: decrease in cell viability, antitumor agent alone, on average): 85%; cytotoxicity at 50 µM ([6]; Homo sapiens, A549, 50 μM, no antioxidant, read-out: decrease in cell viability, antitumor agent alone, on average): 25%; decrease in viability of normal leukocytes, antitumor agent alone ([7]; 40 mM): approximately 19%
2 | CC(C)c1cc(C(=O)[O-])c(O)c(C(C)C)c1.CC(C)c1cc(C(=O)[O-])c(O)c(C(C)C)c1.[Cu+2] [CuDIPS, Cu[II]-[diisopropylsalicylate]] | 28 | 31 | 9 | does not significantly increase | increases | increase | increases | increase | increases | increases | ~90 | increase | increases | increase | viability reduced by [4]: 74%; viability reduced by [5]: 85%; viability reduced by [6]: 50%; decrease in cell viability, maximum [7]: 50%
3 | O=C(O)c1ccc(-c2c3nc(c(-c4ccc(C(=O)O)cc4)c4ccc([n-]4)c(-c4ccc(C(=O)O)cc4)c4nc(c(-c5ccc(C(=O)O)cc5)c5ccc2[n-]5)C=C4)C=C3)cc1.[Mn+3] [MnTBAP, Mn(III) tetrakis(5,10,15,20-benzoic acid)-porphyrin] | 59 | 35 | 42 | does not significantly increase | virtually no influence | increase | only a very weak influence | increase | increases | increases | ~90 | increase | increases | increase | viability reduced by [4]: 62%; viability reduced by [5]: 75%; viability reduced by [6]: 37%; decrease in cell viability, maximum [7]: 18%
4 | CC(=O)N[C@@H](CS)C(=O)O [NAC, N-acetylcystein] |  |  |  | completely blocks | decreases | decreases | decreases | decreases | does not influence | does not modify |  | reduces | reduces | inhibits | increase in proliferation ([1]; 100 μM, 48 h incubation): 73%; increase in proliferation ([2]; 400 μM, 48 h incubation): 47%; increase in proliferation ([3]; 400 μM, 48 h incubation): 45%; increase in tumor volumes after one month compared with mice which do not receive NAC ([8]; 150 mg/kg i.p., three injections per week, mice not treated with oxaliplatin): 44%; effect on the inhibitory effect of oxaliplatin on tumor growth ([8]; mice treated with oxaliplatin 20 mg/kg, NAC 150 mg/kg i.p.): completely blocks; increase in tumor volumes after one month compared with mice which are not given NAC ([9]; 150 mg/kg i.p., three injections per week): 50%; effect on viability of normal human leukocytes [7]: no effect; effect on DNA impairments by mangafodipir, ROS and oxaliplatin ([12]; NAC 5 mM): partially inhibit; effect on DNA impairment by superoxide anions (xanthine/xanthine oxidase) ([12]; NAC 5 mM, X/XO): inhibited; effect on DNA damage by oxaliplatin coincubated with X/XO ([12]; NAC 5 mM, X/XO and low doses of oxaliplatin): decreases the damage; effect on tumor cell viability [10]: no effect
5 | N[C@@H]1CCCC[C@H]1N.O=C([O-])C(=O)[O-].[Pt+2] [oxaliplatin, [(1R,2R)-1,2-cyclohexanediamine-N,N′][oxalate-(2-)—O,O′]platinum (II)] |  |  |  |  |  |  |  |  |  |  |  |  |  |  | decrease in tumor cell proliferation, antitumor agent alone ([1]; 10 μM): 70%; decrease in tumor cell proliferation, antitumor agent alone ([2]; 10 μM): 91%; decrease in tumor cell proliferation, antitumor agent alone ([3]; 10 μM): 93%; decrease in cell viability, antitumor agent alone, on average ([4]; 10 μM, no antioxidant): 50%; decrease in cell viability, antitumor agent alone, on average ([5]; 10 μM, no antioxidant): 27%; decrease in cell viability, antitumor agent alone, on average ([6]; 10 μM, no antioxidant): 28%; tumor volumes compared with the nontreated animals ([8]; single injection of 20 mg/kg): divides the tumor volumes in half; tumor volumes compared with the nontreated animals ([9]; single injection of 20 mg/kg): divides the tumor volumes by four; decrease in viability of normal leukocytes, antitumor agent alone ([7]; 1 mM): approximately 50%; effect on the structure of plasmid DNA (form I / II / III) [12]: dose-dependent impairment
6 | CC(=O)O[C@H]1C(=O)[C@@]2(C)[C@H]([C@H](OC(=O)c3ccccc3)[C@]3(O)C[C@H](OC(=O)[C@H](O)[C@@H](NC(=O)c4ccccc4)c4ccccc4)C(C)=C1C3(C)C)[C@]1(OC(C)=O)CO[C@@H]1C[C@@H]2O [taxol] |  |  |  |  |  |  |  |  |  |  |  |  |  |  | decrease in tumor cell proliferation, antitumor agent alone ([1]; 10 μM): 65%; decrease in tumor cell proliferation, antitumor agent alone ([2]; 10 μM): 71%; decrease in tumor cell proliferation, antitumor agent alone ([3]; 10 μM): 85%; cytotoxicity at 10 µM ([4]; Mus musculus, Hepa1-6, 10 μM, no antioxidant, read-out: decrease in cell viability, antitumor agent alone, on average): 25%; cytotoxicity at 10 µM ([5]; Mus musculus, CT26, 10 μM, no antioxidant, read-out: decrease in cell viability, antitumor agent alone, on average): 50%; cytotoxicity at 10 µM ([6]; Homo sapiens, A549, 10 μM, no antioxidant, read-out: decrease in cell viability, antitumor agent alone, on average): 47%; decrease in viability of normal leukocytes, antitumor agent alone ([7]; 20 μM): approximately 50%
7 | manganese dipyridoxyl phosphate [MnDPDP] | 54 | 63 | 34 |  | inhibits | inhibits | inhibits | increase | increases | increases | ~90 | increase | increases | increase | decrease in tumor volume at one month compared with animals treated only with oxaliplatin ([9]; 10 mg/kg i.p., three injections per week, plus oxaliplatin 20 mg/kg): 63%; effect on viability of normal human leukocytes [7]: does not influence; effect on the structure of plasmid DNA (form I / II / III) [12]: induces, per se, DNA damage; effect on tumor cell viability [10]: reduces, in a dose-dependent manner
